Data published in patent US20140315889A1, “HYDROXAMATE DERIVATIVES FOR HDAC INHIBITOR, AND THE PHARMACEUTICAL COMPOSITION COMPRISING THEREOF” (CHONG KUN DANG PHARMACEUTICAL CORP., priority 2011, published 2014).

Key:
human recombinant HDAC6 = target: T1, human recombinant HDAC6 (Homo sapiens, UniProt Q9UBN7); assay: HDAC enzyme activity test, HDAC6; assay type: biochemical; settings: Table 12; for Selectivity for HDAC6, HD1/HD6: ratio HDAC1 IC50 / HDAC6 IC50; for IC50: read-out: Inhibition ability (IC50) HDAC6
T1 construct: purchased Calibiochem Co. (so in the source) 382180
T1 sequence (Q9UBN7 1-1215): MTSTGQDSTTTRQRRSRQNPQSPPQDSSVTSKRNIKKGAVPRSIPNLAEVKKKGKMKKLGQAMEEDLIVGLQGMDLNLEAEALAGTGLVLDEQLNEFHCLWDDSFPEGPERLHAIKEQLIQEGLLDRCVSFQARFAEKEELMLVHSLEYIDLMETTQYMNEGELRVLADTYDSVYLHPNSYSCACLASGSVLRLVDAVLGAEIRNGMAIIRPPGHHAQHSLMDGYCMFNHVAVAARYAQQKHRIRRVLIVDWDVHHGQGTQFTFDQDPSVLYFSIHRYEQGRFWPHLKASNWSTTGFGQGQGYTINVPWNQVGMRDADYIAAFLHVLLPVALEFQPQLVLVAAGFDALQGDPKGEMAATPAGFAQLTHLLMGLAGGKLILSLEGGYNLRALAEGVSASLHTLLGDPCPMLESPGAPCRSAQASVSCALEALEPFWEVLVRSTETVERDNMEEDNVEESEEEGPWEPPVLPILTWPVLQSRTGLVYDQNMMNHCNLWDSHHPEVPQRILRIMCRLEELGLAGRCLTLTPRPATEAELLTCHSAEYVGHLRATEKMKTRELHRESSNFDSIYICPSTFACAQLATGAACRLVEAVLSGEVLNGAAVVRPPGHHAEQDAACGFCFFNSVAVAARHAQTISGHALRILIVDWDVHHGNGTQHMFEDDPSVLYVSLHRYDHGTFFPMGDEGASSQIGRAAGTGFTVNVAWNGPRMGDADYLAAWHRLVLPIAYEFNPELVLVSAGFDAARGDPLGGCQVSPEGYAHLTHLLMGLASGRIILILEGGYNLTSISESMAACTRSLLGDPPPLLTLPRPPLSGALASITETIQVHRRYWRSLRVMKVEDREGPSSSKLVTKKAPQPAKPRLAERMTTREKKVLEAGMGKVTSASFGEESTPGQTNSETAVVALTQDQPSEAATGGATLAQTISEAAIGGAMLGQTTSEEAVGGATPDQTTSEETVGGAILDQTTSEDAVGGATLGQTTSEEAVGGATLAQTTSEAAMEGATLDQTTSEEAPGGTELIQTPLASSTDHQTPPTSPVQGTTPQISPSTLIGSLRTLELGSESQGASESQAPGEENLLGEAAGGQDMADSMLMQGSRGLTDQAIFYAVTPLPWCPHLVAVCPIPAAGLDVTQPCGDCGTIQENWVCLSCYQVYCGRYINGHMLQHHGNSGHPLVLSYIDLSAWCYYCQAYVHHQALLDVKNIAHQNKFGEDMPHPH
Procedure: (§1) Then, 0.3 μg of enzyme and 10 μM of substrate per well were added, reacted at 30° C. for 60 minutes. Thereto, Fluor de Lys® Developer II (BML-KI176) was added and reacted for 30 minutes. […] From the data, the respective IC50 were calculated by GraphPad Prism 4.0 program.

Human recombinant HDAC1 = target: T2, Human recombinant HDAC1 (Homo sapiens, UniProt Q13547); assay: HDAC enzyme activity test, HDAC1; assay type: biochemical; settings: Table 12; read-out: Inhibition ability (IC50) HDAC1
T2 construct: purchased Enzo Life Science Co. (named for the kit; assigned to the enzyme from the BML- catalogue prefix) BML-SE456
T2 sequence (Q13547 whole entry): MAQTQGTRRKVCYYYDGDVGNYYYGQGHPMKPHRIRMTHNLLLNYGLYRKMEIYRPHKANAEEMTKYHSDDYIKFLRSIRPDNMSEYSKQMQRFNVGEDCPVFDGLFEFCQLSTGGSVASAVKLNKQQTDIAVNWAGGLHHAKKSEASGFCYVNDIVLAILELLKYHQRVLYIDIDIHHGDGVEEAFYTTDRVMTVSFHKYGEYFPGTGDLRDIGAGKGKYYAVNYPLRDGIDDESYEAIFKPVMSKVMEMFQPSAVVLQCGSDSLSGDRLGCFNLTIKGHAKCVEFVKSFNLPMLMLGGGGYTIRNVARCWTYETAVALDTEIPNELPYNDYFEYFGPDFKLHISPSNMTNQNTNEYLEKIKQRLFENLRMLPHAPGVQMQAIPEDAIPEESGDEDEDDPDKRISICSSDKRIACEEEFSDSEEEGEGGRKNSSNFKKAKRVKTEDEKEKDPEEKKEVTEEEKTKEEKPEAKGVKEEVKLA
Procedure: as §1

Compound | Selectivity for HDAC6, HD1/HD6 (human recombinant HDAC6) | IC50 (human recombinant HDAC6) [nM] | IC50 (Human recombinant HDAC1) [nM]
CC1(C)CC(=O)c2c(n(CCCCCC(=O)NO)c3ccccc23)C1 [Compound 18, 6-(2,2-dimethyl-4-oxo-1,2,3,4-tetrahydrocarbazol-9-yl)-N-hydroxyhexanamide] | 18.5 | 71.4 | 1320
CC1(C)CC(=O)c2c(n(CCCCCCC(=O)NO)c3ccccc23)C1 [Compound 20, 7-(2,2-dimethyl-4-oxo-1,2,3,4-tetrahydrocarbazol-9-yl)-N-hydroxyheptanamide] | 16.8 | 7.44 | 125
CC1(C)CC(=O)c2c(n(CCCCCC(=O)NO)c3ccc(Br)cc23)C1 [Compound 40, 6-(6-bromo-2,2-dimethyl-4-oxo-1,2,3,4-tetrahydrocarbazol-9-yl)-N-hydroxyhexanamide] | 75.5 | 117 | 8880
CC1(C)CC(=O)c2c(n(CCCCCC(=O)NO)c3cc(Br)ccc23)C1 [Compound 41, 6-(7-bromo-2,2-dimethyl-4-oxo-1,2,3,4-tetrahydrocarbazol-9-yl)-N-hydroxyhexanamide] | 50.7 | 1.95 | 98.8
CC1(C)CC(=O)c2c(n(Cc3ccc(C(=O)NO)cc3)c3ccc(Br)cc23)C1 [Compound 45, 4-((6-bromo-2,2-dimethyl-4-oxo-1,2,3,4-tetrahydrocarbazol-9-yl)methyl)-N-hydroxybenzamide] | 42.1 | 130 | 5480
CC1(C)CC(=O)c2c(n(CCCCCC(=O)NO)c3c(Br)cccc23)C1 [Compound 46, 6-(1-bromo-7,7-dimethyl-5-oxo-5,6,7,8-tetrahydrocarbazol-9-yl)-N-hydroxyhexanamide] | 8.2 | 253 | 2070
CC1(C)CC(=O)c2c(n(CCCCCC(=O)NO)c3c(Cl)cc(Cl)cc23)C1 [Compound 47, 6-(1,3-dichloro-7,7-dimethyl-5-oxo-5,6,7,8-tetrahydrocarbazol-9-yl)-N-hydroxyhexanamide] | 6.9 | 421 | 2910
CC1(C)CC(=O)c2c(n(CCCCCC(=O)NO)c3c(Cl)ccc(Cl)c23)C1 [Compound 48, 6-(1,4-dichloro-7,7-dimethyl-5-oxo-5,6,7,8-tetrahydrocarbazol-9-yl)-N-hydroxyhexanamide] | 30.1 | 145 | 4370
CC1(C)CC(=O)c2c(n(Cc3ccc(C(=O)NO)cc3)c3c(Cl)ccc(Cl)c23)C1 [Compound 49, 4-((1,4-dichloro-7,7-dimethyl-5-oxo-5,6,7,8-tetrahydrocarbazol-9-yl)methyl)-N-hydroxybenzamide] | 144.8 | 93 | 13500
CC1(C)CC(=O)c2c(n(CCCCCCC(=O)NO)c3ccc(Br)cc23)C1 [Compound 50, 7-(6-bromo-2,2-dimethyl-4-oxo-1,2,3,4-tetrahydrocarbazol-9-yl)-N-hydroxyheptanamide] | 17.7 | 8.95 | 158
CC1(C)CC(=O)c2c(n(CCCCCCC(=O)NO)c3c(Cl)cc(Cl)cc23)C1 [Compound 51, 7-(1,3-dichloro-7,7-dimethyl-5-oxo-5,6,7,8-tetrahydrocarbazol-9-yl)-N-hydroxyheptanamide] | 12.5 | 106 | 1330
CC1(C)CC(=O)c2c(n(CCCCCCC(=O)NO)c3c(Br)cccc23)C1 [Compound 52, 7-(1-bromo-7,7-dimethyl-5-oxo-5,6,7,8-tetrahydrocarbazol-9-yl)-N-hydroxyheptanamide] | 27.7 | 23.9 | 662
CC1(C)CC(=O)c2c(n(Cc3ccc(C(=O)NO)cc3)c3cccc(Br)c23)C1 [Compound 53, 4-((5-bromo-2,2-dimethyl-4-oxo-1,2,3,4-tetrahydrocarbazol-9-yl)methyl)-N-hydroxybenzamide] | 88.7 | 64.9 | 5760
CC1(C)CC(=O)c2c(n(Cc3ccc(C(=O)NO)cc3)c3cc(Br)ccc23)C1 [Compound 54, 4-((7-bromo-2,2-dimethyl-4-oxo-1,2,3,4-tetrahydrocarbazol-9-yl)methyl)-N-hydroxybenzamide] | 24.7 | 59.5 | 1470
CC1(C)CC(=O)c2c(n(CCCCCCC(=O)NO)c3ccc(F)cc23)C1 [Compound 56, 7-(6-fluoro-2,2-dimethyl-4-oxo-1,2,3,4-tetrahydrocarbazol-9-yl)-N-hydroxyheptanamide] | 58.5 | 4.13 | 242
CC1(C)CC(=O)c2c(n(Cc3ccc(C(=O)NO)cc3)c3ccc(F)cc23)C1 [Compound 57, 4-((6-fluoro-2,2-dimethyl-4-oxo-1,2,3,4-tetrahydrocarbazol-9-yl)methyl)-N-hydroxybenzamide] | 168.3 | 22.4 | 3770
CC1(C)CC(=O)C2c3c(F)cccc3N(CCCCCC(=O)NO)C2C1 (stereo not drawn) [Compound 60, 6-(5-fluoro-2,2-dimethyl-4-oxo-2,3,4,4a-tetrahydro-1H-carbazol-9(9aH)-yl)-N-hydroxyhexanamide] | 127.4 | 72 | 9180
CC1(C)CC(=O)c2c(n(Cc3ccc(C(=O)NO)cc3)c3cc(F)c(F)cc23)C1 [Compound 71, 4-((6,7-difluoro-2,2-dimethyl-4-oxo-1,2,3,4-tetrahydrocarbazol-9-yl)methyl)-N-hydroxybenzamide] | 37 | 134 | 4990
CC1(C)CC(=O)c2c(n(CCCCCC(=O)NO)c3cc(F)c(F)cc23)C1 [Compound 72, 6-(6,7-difluoro-2,2-dimethyl-4-oxo-1,2,3,4-tetrahydrocarbazol-9-yl)-N-hydroxyhexanamide] | 28.2 | 215 | 6060
CC1(C)CC(=O)c2c(n(Cc3ccc(C(=O)NO)cc3)c3ccc(F)c(F)c23)C1 [Compound 73, 4-((5,6-difluoro-2,2-dimethyl-4-oxo-1,2,3,4-tetrahydrocarbazol-9-yl)methyl)-N-hydroxybenzamide] | 52.1 | 75.1 | 3910
CC1(C)CC(=O)c2c(n(CCCCCC(=O)NO)c3ccc(F)c(F)c23)C1 [Compound 74, 6-(5,6-difluoro-2,2-dimethyl-4-oxo-1,2,3,4-tetrahydrocarbazol-9-yl)-N-hydroxyhexanamide] | 33.3 | 141 | 4720
CC1(C)CC(=O)c2c(n(CCCCCC(=O)NO)c3cc(F)ccc23)C1 [Compound 76, 6-(7-fluoro-2,2-dimethyl-4-oxo-1,2,3,4-tetrahydrocarbazol-9-yl)-N-hydroxyhexanamide] | 30.7 | 171 | 5230
Cc1nccn1CC1CCc2c(c3ccccc3n2Cc2ccc(C(=O)NO)cc2)C1=O (stereo not drawn) [Compound 85, N-hydroxy-4-((3-((2-methyl-1H-imidazole-1-yl)methyl)-4-oxo-1,2,3,4-tetrahydrocarbazol-9-yl)methyl)benzamide] | 225 | 11.3 | 2550
O=C(NO)c1ccc(Cn2c3c(c4ccccc42)C(=O)C(CN2CCCCC2)CC3)cc1 (stereo not drawn) [Compound 86, N-hydroxy-4-((4-oxo-3-(piperidin-1-ylmethyl)-1,2,3,4-tetrahydrocarbazol-9-yl)methyl)benzamide] | 286.1 | 9.94 | 2840
